This passage reports IC50 results from patent US10987351B2, “RORgamma modulators and uses thereof” (Genfit, priority 2017, dated 2021).

For orientation: IC50 means the concentration that gives 50% inhibition.

Molecules are shown by their SMILES. Values joined by “and” are separate entries in the source; they are usually repeats but may differ in a detail not shown here. Identical values can stand only once.

Assay [1] has as its target T1, RORγt ligand-binding domain (RORγt-LBD) (Homo sapiens, UniProt P51449).
T1 construct: 20 nM recombinantly expressed RORγ-LBD fused to GST
T1 sequence (P51449 269-508 limits assumed): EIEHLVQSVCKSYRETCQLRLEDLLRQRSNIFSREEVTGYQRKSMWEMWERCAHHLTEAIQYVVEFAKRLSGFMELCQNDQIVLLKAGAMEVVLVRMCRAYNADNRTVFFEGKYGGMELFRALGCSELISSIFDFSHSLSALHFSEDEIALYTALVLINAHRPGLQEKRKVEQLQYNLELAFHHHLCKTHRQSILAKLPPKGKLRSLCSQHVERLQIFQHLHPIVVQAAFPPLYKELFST
Nature of the assay: Time-resolved FRET (TR-FRET) RORγt coactivator assay. It is filed as biochemical. The following applies: GST-RORγ-LBD, biotinylated RIP140 peptide, 2 hours; read-out: IC50, coactivator-RORγt binding inhibition (TR-FRET). The text has this: Time-resolved FRET (TR-FRET) RORγt coactivator assay was used to identify RORγ modulator compounds with ligand-dependent coactivator displacement. The assay uses a d2-labeled anti-GST antibody, synthetic N-terminally biotinylated peptide which is derived from nuclear receptor coactivator protein RIP140, and a RORγt ligand-binding domain (RORγt-LBD) that is tagged with glutathione-S-transferase (GST). The influence of compounds on the RORγ-peptide interaction relies on the binding dependent energy transfer from a donor to an acceptor fluorophor attached to the binding partner of interest. […] For reduction of background from compound fluorescence, TR-FRET method makes use of generic fluorophore labels and time resolved detection.
The assays were done in a final volume of 20 μl in a 384 well plate in a CHAPS buffer (2 mM CHAPS; 1 mM DTT, 2 mM EDTA; 0.1% BSA), containing 20 nM recombinantly expressed RORγ-LBD fused to GST, 30 nM N-terminally biotinylated peptide, 1 nM streptavidin-terbium conjugate and 20 nM d2 labeled-anti-GST. Test compounds were diluted using 10 mM stock solution. The range of the final compound concentrations used in this test was from 0.3 nM to 30 μM (logarithmic scale). DMSO content of the samples was kept at 1%. The assay was equilibrated for 2 hours in the dark at room temperature in 384 well plates (Falcon). The signal was detected by an Ultra384 reader (TECAN). […] Compounds that promote coactivator displacement induce a concentration-dependent decrease in time-resolved fluorescent signal. Data were collected and analyzed using GraphPad Prism software (GraphPad Software V5.02, San Diego Calif. USA). IC50 in μM and Emax in % were reported for each compound.
On the technique in general: In TR-FRET formats the signal depends on donor and acceptor labels being close together.

Assay [2] deals with T2, human RORγt (Homo sapiens, UniProt P51449).
T2 sequence (P51449 1-497 isoform P51449-2): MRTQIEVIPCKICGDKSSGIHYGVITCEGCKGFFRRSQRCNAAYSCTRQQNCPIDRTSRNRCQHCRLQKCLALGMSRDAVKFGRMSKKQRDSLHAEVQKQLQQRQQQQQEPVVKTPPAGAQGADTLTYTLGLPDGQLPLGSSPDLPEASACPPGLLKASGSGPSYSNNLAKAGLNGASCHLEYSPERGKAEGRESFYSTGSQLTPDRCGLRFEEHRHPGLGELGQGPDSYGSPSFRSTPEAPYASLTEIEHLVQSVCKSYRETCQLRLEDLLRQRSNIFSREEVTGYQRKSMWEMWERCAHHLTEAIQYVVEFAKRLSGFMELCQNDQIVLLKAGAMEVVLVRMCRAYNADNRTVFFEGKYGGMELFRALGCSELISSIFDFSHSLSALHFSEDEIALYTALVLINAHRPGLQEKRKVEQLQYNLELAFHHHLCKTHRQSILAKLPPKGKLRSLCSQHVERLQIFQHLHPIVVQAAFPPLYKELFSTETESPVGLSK
Nature of the assay: RORE Luciferase/RORγt transactivation assay. On the set-up: the full-length cDNA of human RORγt; V5-His (encoded by the vector); expressed in transfected cells; host or cells: COS-7 (monkey kidney). The following applies: COS-7 cells transfected with human IL-17 promoter luciferase reporter and RORγt plasmid, 20 h; read-out: IC50, RORγt activity inhibition (luciferase reporter). The format is cell-based. The protocol:
It is well known that RORγ binds to a conserved non-coding sequence (CNS) enhancer element in the IL-17 promoter.
Culture medium was changed every 2 days.
The 4.3 Kb human IL-17 promoter containing the RORγ-specific CNS enhancer element was PCR amplified from human genomic DNA and cloned into a pGL3-TKLuc2Cp reporter plasmid.
The luciferase reporter plasmid and the RORγt overexpression plasmid were transfected into COS-7 cell line using 4 μLJetPEI™/μg of DNA. Briefly, 150 ng of DNA (ration 1/2 between RORE-Tk Luc2Cp and cDNA RORγt or the empty vector for the negative control) was served to transfect adherent COS-7 cells in a […] culture flask, in complete medium (see cos-7 cell line culture).
Cells were then detached (using trypsin) and washed by centrifugation at 300 g for 10 minutes. Cell pellet was resuspended in serum free/phenol red free DMEM and seeded in 384 well plates at a density of 10000 cells/well and then incubated for 4 h at 37° C.
Compounds were dissolved in 100% DMSO to obtain 10 mM stock solutions. For each compound, test concentrations were diluted in serum free/phenol red free DMEM using the Genesis Freedom 200™ (TECAN) and added to the cells to obtain a 0.3% DMSO final concentration (in a final volume of 40 μL per well).
The luciferase activity was then measured with 40 μL/well steady-Glo Luciferase assay system (Promega, Madison, Wis.) and after incubation at room temperature for 30 minutes. The luminescence was estimated using the Ultra384 reader (TECAN). Data were collected and analyzed using GraphPad Prism software (GraphPad Software V5.02, San Diego Calif. USA). IC50 in μM and Emax in % were reported for each compound.
(In a reporter assay the amount or activity of a reporter protein is the signal.)

For `CC(=O)N1CCN(c2ccc(F)c(CC(=O)NC(c3ccccc3)c3ccc(C)cc3N3CCCCC3)c2)CC1` (centres unmarked) [Cpd.13, 2-[5-(4-acetylpiperazin-1-yl)-2-fluorophenyl]-N-{[4-methyl-2-(piperidin-1-yl)phenyl](phenyl)methyl}acetamide], the concentration for half-maximal inhibition (IC50) in assay [1] is less than 100 nM; in assay [2] it was 100 to 1000 nM.
In the same order, the values of `Cc1ccc(C(NC(=O)Cc2cc(N3CCNCC3)ccc2C)c2ccccc2)c(N2CCCCC2)c1` (centres unmarked) [Cpd.6, N-{[4-methyl-2-(piperidin-1-yl)phenyl](phenyl)methyl}-2-[2-methyl-5-(piperazin-1-yl)phenyl]acetamide] are 1000 to 10000 nM and 1000 to 10000 nM.
As for `Cc1ccc(C(NC(=O)Cc2cc(N3CCNCC3)ccc2F)c2ccccc2)c(N2CCCCC2)c1` (centres unmarked) [Cpd.7, 2-[2-fluoro-5-(piperazin-1-yl)phenyl]-N-{[4-methyl-2-(piperidin-1-yl)phenyl](phenyl)methyl}acetamide], the IC50 was 1000 to 10000 nM in assay [1] and greater than 10000 nM in assay [2].
For the compound `Cc1ccc(C(NC(=O)Cc2cc(N3CCC(S(C)(=O)=O)CC3)ccc2F)c2ccc(C)o2)c(N2CCCCC2)c1` (centres unmarked) [Cpd.21, 2-[2-fluoro-5-(4-methanesulfonylpiperidin-1-yl)phenyl]-N-{[4-methyl-2-(piperidin-1-yl)phenyl](5-methylfuran-2-yl)methyl}acetamide], the 50% inhibitory concentration (IC50) in assay [1] and in assay [2] was less than 100 nM in each case.
In the case of `Cc1ccc(C(NC(=O)Cc2cc(N3CCN(C(=O)OC(C)(C)C)CC3)ccc2C)c2ccc(C)o2)c(N2CCCCC2)c1` (centres unmarked) [Cpd.8, tert-butyl 4-{4-methyl-3-[({[4-methyl-2-(piperidin-1-yl)phenyl](5-methylfuran-2-yl)methyl}carbamoyl)methyl]phenyl}piperazine-1-carboxylate], the half-inhibitory concentration (IC50) fell in the range of 1000 to 10000 nM in assay [1] and 100 to 1000 nM in assay [2].
Consider `Cc1ccc(C(NC(=O)Cc2cccc(N3CCN(C)CC3)c2)c2ccc(C)o2)c(N2CCCCC2)c1` (centres unmarked) [Cpd.23, N-{[4-methyl-2-(piperidin-1-yl)phenyl](5-methylfuran-2-yl)methyl}-2-[3-(4-methylpiperazin-1-yl)phenyl]acetamide], for which the IC50 in assay [1] was less than 100 nM; in assay [2], 100 to 1000 nM.
For the compound `Cc1ccc(C(NC(=O)Cc2cc(N3CCN(C(=O)OC(C)(C)C)CC3)ccc2C)c2ccccc2)c(N2CCCCC2)c1` (centres unmarked) [Cpd.5, tert-butyl 4-{4-methyl-3-[({[4-methyl-2-(piperidin-1-yl)phenyl](phenyl)methyl}carbamoyl)methyl]phenyl}piperazine-1-carboxylate], the half-inhibitory concentration (IC50) is 1000 to 10000 nM in assay [1] and greater than 10000 nM in assay [2].
Consider `Cc1ccc(C(NC(=O)Cc2cccc(N3CCN(S(N)(=O)=O)CC3)c2)c2ccc(C)o2)c(N2CCCCC2)c1` (centres unmarked) [Cpd.24, N-{[4-methyl-2-(piperidin-1-yl)phenyl](5-methylfuran-2-yl)methyl}-2-[3-(4-sulfamoylpiperazin-1-yl)phenyl]acetamide], for which the IC50 in assay [2] was 100 to 1000 nM.
Regarding `COc1ccc(C(NC(=O)Cc2cc(N3CCN(C(C)=O)CC3)ccc2C)c2ccccc2)c(N2CCCCCC2)c1` (centres unmarked) [Cpd.15, 2-[5-(4-acetylpiperazin-1-yl)-2-methylphenyl]-N-{[2-(azepan-1-yl)-4-methoxyphenyl](phenyl)methyl}acetamide], the IC50 in assay [1] is 100 to 1000 nM and < 100 nM; in assay [2], 100 to 1000 nM.
As for `Cc1ccc(C(NC(=O)Cc2cc(N3CCNCC3)ccc2C)c2ccc(C)o2)c(N2CCCCC2)c1` (centres unmarked) [Cpd.9, N-{[4-methyl-2-(piperidin-1-yl)phenyl](5-methylfuran-2-yl)methyl}-2-[2-methyl-5-(piperazin-1-yl)phenyl]acetamide], the IC50 in assay [1] fell in the range of 100 to 1000 nM; in assay [2], 1000 to 10000 nM.
As to `Cc1ccc(C(NC(=O)Cc2cccc(N3CCC(S(C)(=O)=O)CC3)c2)c2ccc(C)o2)c(N2CCCCC2)c1` (centres unmarked) [Cpd.22, 2-[3-(4-methanesulfonylpiperidin-1-yl)phenyl]-N-{[4-methyl-2-(piperidin-1-yl)phenyl](5-methylfuran-2-yl)methyl}acetamide], the 50% inhibitory concentration (IC50) in assay [1] and in assay [2] was less than 100 nM in each case.
For the compound `Cc1ccc(C(NC(=O)Cc2cc(N3CCN(C(=O)OC(C)(C)C)CC3)ccc2F)c2ccccc2)c(N2CCCCC2)c1` (centres unmarked) [Cpd.4, tert-butyl 4-{4-fluoro-3-[({[4-methyl-2-(piperidin-1-yl)phenyl](phenyl)methyl}carbamoyl)methyl]phenyl}piperazine-1-carboxylate], the IC50 in assay [2] fell in the range of 100 to 1000 nM.
As for `Cc1ccc(C(NC(=O)Cc2cccc(N3CCN(C(=O)C(F)(F)F)CC3)c2)c2ccc(C)o2)c(N2CCCCC2)c1` (centres unmarked) [Cpd.25, N-{[4-methyl-2-(piperidin-1-yl)phenyl](5-methylfuran-2-yl)methyl}-2-{3-[4-(trifluoroacetyl)piperazin-1-yl]phenyl}acetamide], the IC50 in assay [1] was 100 to 1000 nM; in assay [2] it was less than 100 nM.
Regarding `CC(=O)N1CCN(c2ccc(CC(=O)NC(CC(C)C)c3ccccc3N3CCCCC3)cc2)CC1` (centres unmarked) [Cpd.2, 2-[4-(4-acetylpiperazin-1-yl)phenyl]-N-{3-methyl-1-[2-(piperidin-1-yl)phenyl]butyl}acetamide], the IC50 in assay [1] and in assay [2] was 100 to 1000 nM in each case.
